The text below walks through data of US10449198B2, “Method for treating pain” (The University of Liverpool, priority 2016, dated 2019).

Molecules are shown by their SMILES. pEC50: −log10 of the molar value.

One data set addresses T1, α1 glycine (Homo sapiens, UniProt P23415).
T1 construct: expressed in transfected cells; host or cells: Xenopus laevis oocytes (cRNA injection)
T1 sequence (P23415 29-457): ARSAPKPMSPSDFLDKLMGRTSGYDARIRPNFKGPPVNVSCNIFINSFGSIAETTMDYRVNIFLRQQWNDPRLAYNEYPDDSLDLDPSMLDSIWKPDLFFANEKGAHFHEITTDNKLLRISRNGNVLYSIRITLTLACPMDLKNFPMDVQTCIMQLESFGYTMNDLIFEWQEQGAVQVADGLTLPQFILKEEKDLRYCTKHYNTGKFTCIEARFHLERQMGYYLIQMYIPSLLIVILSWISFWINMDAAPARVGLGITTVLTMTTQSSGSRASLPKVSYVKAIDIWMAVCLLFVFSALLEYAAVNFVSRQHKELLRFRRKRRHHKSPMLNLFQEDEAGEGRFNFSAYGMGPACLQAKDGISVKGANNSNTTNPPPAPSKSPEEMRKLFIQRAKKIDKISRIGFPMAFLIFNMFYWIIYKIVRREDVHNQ
Kind of data set: Glycine receptor activity, two-electrode voltage-clamp in Xenopus laevis oocytes. The data set is classed as cell-based. The note with it: TEVC, holding potential −70 mV. Here is the method: Oocytes were surgically removed from adult female Xenopus laevis clawfrogs anaesthetized by immersion in 0.3% tricaine in water (w/v). All protocols were approved by the local animal care and use committee (II25.3-19c20/15; RP Darmstadt, Germany). Stage V and VI Oocytes were dissected and stored in sterile-filtered ND96 medium (composition in mM: 96 NaCl, 2 KCl, 1 CaCl, 1 MgCl, 5 HEPES, pH 7.4) containing gentamycin (50 μg/mL). The oocytes were isolated and enzymatically and maintained as described previously (Grudzinska et al., 2005). Oocytes were injected with 5 ng of cRNA using a Drummond microinjector (Drummond Scientific, Broomall, USA) and incubated in ND96 for 24 h at 18° C. before electrophysiological recording. Two-electrode voltage-clamp (TEVC) with microelectrodes containing 3 M KCl was performed in bath solution at a holding potential of −70 mV as described previously (Laube et al., 2000). […]
Currents were measured with Clampfit 9.2 software (Molecular Devices), Results were analyzed using the KaleidaGraph program (Synergy Software, Reading, Pa.) and GraphPad Prism version 5.0 (GraphPad Software Inc., San Diego, Calif.). […] For propofol and 4-chloropropofol modulation, responses to EC20 glycine after application were analyzed as described previously (Lynagh and Laube, 2014); mean±standard error of the mean (SEM) are reported. […]
Background: In two-electrode clamp one electrode senses voltage and the other passes current.

Data set [1] concerns neuropathic rats. Nature of the data set: Neuropathic pain model (partial sciatic nerve ligation): cold hyperalgesia, 10° C. cold plate paw withdrawal latency. In kind it is in vivo, rat. The procedure:
Fasted, male, Wistar rats. n=6/group. Vehicle: 10% DMSO/10% Solutol HS15/80% saline. 10 ml/kg p.o. One-way ANOVA, comparison with time-matched vehicle group using Tukey's HSD test, *p<0.05, **p<0.01, ***p<0.001.
• 1) In rats a peripheral neuropathy was induced by partial ligation of the sciatic nerve in one hind limb. • 2) Two weeks (12-15 days) after induction of peripheral neuropathy stable mechanical (tactile) allodynia was induced in the hind paw of the affected limb. • 3) Five treatment groups of male SD rats (n=8) were used: vehicle control (drug formulation), 3 drug doses, and a positive control, lamotrigine (30 mg/kg). Animals were randomized between groups and the experiment was carried out using blinded conditions. The study was split with n=4/group in each experiment. • 4) Baseline behavioural measurements were obtained prior to surgery and at intervals post-surgery. Predose behavioural measurements were obtained by measuring paw withdrawal thresholds 12-15 days following nerve ligation. • 5) Compound efficacy was determined by measuring paw withdrawal thresholds at specified intervals following vehicle/compound treatment. Animals […]
(§1) Compound/vehicle were administered at specified doses. Following treatment, further readings were taken; 1, 3, 6 and 24 hour after p.o. administration.
Cold sensitivity was assessed using a commercially available cold-plate (Ugo Basile, Milan). The cold-plate was set according to pre-determined calibration data using a surface temperature probe to correlate set temperature to actual surface temperature over a wide temperature range (−5° C. to 26° C.). […] Paw withdrawal latencies were determined with the cold-plate set at 10° C. […] The end point was taken as the withdrawal of the paw and recorded as the withdrawal latency for the ipsilateral and the contralateral paw. […]
(§2) Raw data were analysed using parametric statistical tests, including one-way analysis of variance (ANOVA) followed by Tukey's post hoc test repeated measures of ANOVA. […]

The test system of data set [2] is neuropathic rats. Nature of the data set: Neuropathic pain model (partial sciatic nerve ligation): tactile allodynia / mechanical paw withdrawal thresholds. The data set is classed as in vivo, rat. Here is the method: Fasted, male, Wistar rats. n=6/group. Vehicle: 10% DMSO/10% Solutol HS15/80% saline. 10 ml/kg p.o. One-way ANOVA, comparison with time-matched vehicle group using Tukey's HSD test, *p<0.05, **p<0.01, ***p<0.001
Protocol for study of compounds in a model of neuropathic pain: reversal of tactile allodynia.
• 1) In rats a peripheral neuropathy was induced by partial ligation of the sciatic nerve in one hind limb. • 2) Two weeks (12-15 days) after induction of peripheral neuropathy stable mechanical (tactile) allodynia was induced in the hind paw of the affected limb. • 3) Five treatment groups of male SD rats (n=8) were used: vehicle control (drug formulation), 3 drug doses, and a positive control, lamotrigine (30 mg/kg). Animals were randomized between groups and the experiment was carried out using blinded conditions. The study was split with n=4/group in each experiment. • 4) Baseline behavioural measurements were obtained prior to surgery and at intervals post-surgery. Predose behavioural measurements were obtained by measuring paw withdrawal thresholds 12-15 days following nerve ligation. • 5) Compound efficacy was determined by measuring paw withdrawal thresholds at specified intervals following vehicle/compound treatment. Animals
All animal procedures were carried out in accordance with the UK Animals (Scientific Procedures) Act 1986 and associated guidelines. Animals were maintained in a controlled lighting environment and given food and water ad libitum. Male Sprague Dawley rats (120-140 g at time of surgery) were used.
Tests compounds as well as lamotrigine (30 mg/kg, volume: 10 ml/kg)) were prepared in the designated formulation (10% DMSO, Solutol HS 15/80% and 0.9% saline for p.o. administration) and administered via the chosen route.
Allodynia was examined in the model of neuropathic pain induced by partial ligation of the sciatic nerve as described by Seltzer et al (1990). […]
Tactile allodynia was assessed by measuring withdrawal thresholds to calibrated von Frey hairs. […] The lowest amount of force required to elicit a response was recorded as the paw withdrawal threshold (in grams).
Allodynia was measured on both the ipsilateral (ligated) and contralateral (non-ligated) paw prior to (pre-dose) and at a set time point following compound or vehicle administration (post-dose). […]
as §1, §2

[3] abbreviates: contralateral (non-ligated) paw.

Broadly, the pEC50 is the EC50 on a negative log10 scale, so that one unit is a factor of ten. Usually melting point stands for the temperature of the solid-liquid transition. `CC(C)(C)c1cc(C(=O)N2CCOCC2)cc(C(C)(C)C)c1O` [Compound 82, (3,5-Di-tert-butyl-4-hydroxyphenyl)(morpholino) methanone] gave a melting point of 174 to 176 °C. Also, the pEC50 on α1 glycine was 9.34. The “Peak reversal of cold hyperalgesia” value with neuropathic rats [1] (30 mg/kg p.o., at 1 h, 10° C. cold plate, neuropathic rats) is on record as 74%. Besides, the “Contralateral paw withdrawal latencies to cold” value in the data set with neuropathic rats [1] (setting [3]) is given as “increased”. Also, the “Reversal of cold (10° C. cold plate) parameter” value with neuropathic rats [1] (p.o., neuropathic rats) is “marked and long-lasting reversal”. Further, in the data set on neuropathic rats [2] (30 mg/kg p.o., at 1 h, ipsilateral paw, neuropathic rats), the “Peak reversal of tactile allodynia” value was determined as 72%. In addition, the “Efficacy across doses (cold and mechanical parameters)” value in the data set with neuropathic rats [2] (all three doses, p.o.) was “good and dose-related efficacy”. In addition, the “Contralateral paw withdrawal thresholds to mechanical pressure” value in the data set on neuropathic rats [2] (setting [3]) is recorded as “significant increase”. Moreover, the “Reversal of mechanical (paw pressure) parameter” value in the data set with neuropathic rats [2] (p.o., neuropathic rats) was “marked and long-lasting reversal”.
